Test results published in paper PMC9697349, “Mouse Pharmacokinetics and In Vitro Metabolism of SH-11037 and SH-11008, Synthetic Homoisoflavonoids for Retinal Neovascularization” (Pharmaceutics, 2022).

Assay: Mouse pharmacokinetics, single i.v. dose
Assay type: in vivo
Settings: plasma, iv, single i.v. dose of SH-11008 3 mg/kg, male ICR mice
Description: Pharmacokinetic studies were performed with male ICR mice (8 weeks old, 30~35 g) purchased from Koatech Co. (Kyunggi, Korea) as reported previously. Test compounds were dissolved at 1 mg/mL in DMA/Tween 80/20% aqueous HPβCD (10/10/80 vol%) to prepare the dosing solutions. SH-11037 was administered by oral (p.o.) gavage at a dose of 10 mg/kg and a dose volume of 10 mL/kg (equimolar to 6 mg/kg of SH-11008) or intravenously (i.v.) via tail vein injection at a dose of 5 mg/kg and a dose volume of 5 mL/kg (equimolar to 3 mg/kg of SH-11008), respectively. SH-11008 was administered p.o. at a dose of 6 mg/kg and a dose volume of 6 mL/kg or i.v. at a dose of 3 mg/kg and a dose volume of 3 mL/kg, respectively. Plasma samples were analyzed as described below in Section 2.6.1.
Calibration standards and quality control (QC) samples were prepared by spiking 15 μL of blank plasma with 5 μL of analyte working solution prepared in 50 vol% aqueous CH3CN. For sample preparation, 15 μL aliquots of plasma samples combined with 5 μL of 50 vol% aqueous CH3CN were mixed with 3 volumes of ice-cold CH3CN containing glipizide (500 ng/mL) as the IS. The mixture was vortexed, sonicated, and centrifuged at 3000× g for 20 min. The supernatant was then mixed with the same volume of HPLC grade water before analysis. Sample analyses were conducted using Agilent 1290 Infinity HPLC system coupled to Agilent 6460 Triple Quadrupole LC-MS/MS system equipped with Jet Stream ESI ion source (Agilent Technologies Korea, Seoul, Korea). Chromatographic separation was performed on an Agilent Eclipse Plus C18 column (2.1 × 100 mm, 3.5 μm) with a Phenomenex Security Guard C18 guard column (4 × 20 mm) maintained at 40 °C. The mobile phase consisted of 0.1% formic acid in deionized water (A) and 0.1% formic acid in CH3CN (B): 0~2 min 5% B, 2~3 min to 95% B, and 3~6.5 min 95% B. Total run time including a 3 min equilibration time was 9.5 min. The flow rate was 0.45 mL/min. The injection volume was 5 µL. Detection of the analyte ions was performed in the positive multiple reaction monitoring (MRM) mode, with the following mass transitions (precursor > product): m/z 644 > 588, 397 > 367, and 446 > 321 for SH-11037, SH-11008 and IS, respectively. […] The lower limit of quantitation of SH-11037 and SH-11008 were 0.24 and 0.48 ng/mL, respectively, with a signal-to-noise ratio based on root mean square noise > 10. The calibration curves were linear in the range of 0.24–500 ng/mL (r^2 > 0.997) for SH-11037 and 0.48–500 ng/mL (r^2 > 0.998) for SH-11008, respectively. The precision and accuracy of the analytical method were evaluated with the QC samples prepared in triplicate at 5, 250, and 400 ng/mL for both of SH-11037 and SH-11008: the coefficient of variation (%CV) and the relative error (%RE) were in the ranges of −21.23~5.72% and 1.47~12.30% for SH-11037 and −22.85~4.96% and 1.2~13.8% for SH-11008, respectively. Extraction recovery, matrix effect, and process efficiency were in the ranges of 91.8~107.1%, 86.3~99.9%, and 88.8~100.8% for SH-11037 and 88.9~103.8%, 88.9~100.0%, and 80.0~97.4% for SH-11008, respectively. Quantitative analysis data were obtained with Agilent Mass Hunter Quantitative Analysis QQQ (ver. B.05.00) software.
Pharmacokinetic parameters were calculated by noncompartmental analysis of plasma concentration versus time profiles using PKSolver. The scaling factors of mice and human, half-life (t1/2), intrinsic clearance (CLint), hepatic clearance (CLH), and hepatic extraction ratio (EH) were from the in vitro studies as described previously. […] The fraction of parent drug converted to the metabolite (fm) was calculated as follows:fm (%) = (AUC(m) × CL(m))/D × MWparent/MWmetabolite × 100,(1) where D is dose of the parent drug, AUC(m) is area under the curve for the metabolite after a dose of parent drug, CL(m) is CL of metabolite, and MW is molecular weight.

Cmax: 770 ± 1160 ng/mL
Tmax: 5 min
clearance: 210 ± 17.2 mL/min/kg
half-life (n = 3, read-out: t1/2 of SH-11008): 3.5 ± 0.5 min
AUC(0-inf) (read-out: AUCinf of SH-11008 (converted)): 239 ng·h/mL
AUC(0-t) (read-out: AUClast of SH-11008 (converted)): 239 ng·h/mL
Vd (read-out: Vss): 0.5 ± 0.1 L/kg
Compound: COc1ccc(CC2COc3cc(OC)c(OC)c(OC)c3C2=O)cc1O (stereo not shown) [SH-11008]
